Counter-ions that a name gives are not always drawn.
Key:
[1] = Rapid screening of L-amino acids as cycloaddition ligand catalysts using fluorogenic probe 1a; details: L-amino acid 1.0 mM, CuSO4 1.0 mM, 1a + 2a; for enhancement of cycloaddition rates: 24 h room temperature
Method: A fluorescence quenching technique was used to identify catalysts for the copper-catalyzed cycloaddition. […] In such a screen, the reaction between 1a and 2a is performed in microtiter plates in the presence of individual amino acids. […] (Upper) The microtiter plate was visualized under long wavelength UV lamp (365 nm). (Lower) The fluorescent intensities of each well are measured by a fluorescence plate reader.
The effect of the ligand effect on the reaction rate was visualized by holding the 96-well microtiter plate under a long wavelength UV lamp (365 nm) and analyzed with a standard fluorescence multiplate reader.
The overall volume in each vial was 250 microliters containing a solution of 1,8-naphthalimide 1a (0.5 mM), azidofucose 2a (1.0 mM), CuSO4 (1.0 mM), L-amino acid (1.0 mM) and sodium ascorbate (5.0 mM) in DMSO/water (56% DMSO). The reactions were allowed to stand at room temperature for 24 hours. The reaction mixture was diluted 60 times with 50 mM HEPES buffer (pH 7.2) and then transferred to 96-well microtiter plate, and fluorescence intensity (excitation, 365 nm; emission, […]) was determined with a Fusion plate reader (Perkin Elmer/Packard).

[2] = cited from earlier work
[3] = test system: human alpha1-acid glycoprotein (AGP); assay: Fluorescent labeling of AGP fucosylated by FucT V, SDS/PAGE visualized by UV light; type: biochemical; details: AGP fucosylated with FucT V and GDP-fucose analog 8, 9 or 10, then labeled with 1a or 1b
Text: Briefly, fucose analogs 4 and 5 are converted to the corresponding 1-bromides, which then are substituted directly by a phosphate group. […] Therefore, TiBr4 is used instead, as described by Srivastava. The fucose-1-phosphates are converted to the corresponding GDP-fucose analogs by using 1H-tetrazole as a catalyst. The tolerability of GDP-fucose analogs 8 and 9 for human alpha-1,3-fucosyltranseferases (FucTs) II-VII is confirmed by using a standard microtiter plate assay. They are then used to elaborate the glycoconjugate substrate, human alpha1-acid glycoprotein (AGP), an acute-phase protein. As fucosylation of AGP is associated with inflammatory diseases, the degree of fucosylation of AGP could be a potential diagnostic or prognostic marker. AGP was fucosylated by using FucT V in the presence of GDP-fucose analogs 8 or 9. After gel filtration, the fucosylated AGP is labeled by using the corresponding naphthalimide 1a or 1b for 4 h at room temperature. Labeled protein is analyzed by SDS/PAGE and visualized by UV light (365 nm). […] Treated protein was separated by SDS/PAGE and visualized by UV light (Top) and Coomassie blue staining (CBB) (Middle). (Bottom) Modified GDP-fucose.
Human alpha1-acid glycoprotein (0.33 mg/mL), pretreated with alpha-fucosidase, was incubated with human alpha-1,3-fucosyltransferase V (100 mU/mL) in MOPS buffer (50 mM, pH 7.2) containing 150 mM NaCl, 10 mM MnCl2, 4 mM ATP, 0.2 mM GDP-fucose analog (8-10). After incubation at 37° C. for 8 h, additional GDP-fucose derivative (final 0.4 mM) was added and the reaction mixture was incubated at 37° C. for 12 h. […]
The fucosylated glycoconjugate was dissolved in HEPES buffer (50 mM, pH 7.6), and added to a solution containing CuSO4 (0.2 mM), 1.0 mM sodium ascorbate, the tris(triazolyl)amine ligand (20) (0.2 mM, stock in DMSO), and the appropriate naphthalimide ligation probe 1a or 1b (0.1 mM, stock in DMSO, final concentration of DMSO; 10%)). After 1 h at room temperature, the mixture was passed through NAP-5 column in water and lyophilized, and analyzed by SDS-PAGE.

Jurkat cells = assay: Fluorescent labeling at the cell surface by flow cytometry; type: cell-based
Text: In another aspect, the disclosure provides a method of labeling of azide-tagged glycoconjugates expressed on the cell surface by using the alkyne click-activated fluorogenic probe 1a. First, the effect of various Cu(I) sources on the copper-catalyzed cell-surface labeling reaction was investigated. Cu(I) is typically generated including in situ by the reduction of Cu(II) by conventional reducing agents or the direct addition of Cu(I) as a salt. To label azido tagged glycoconjugates (in this case, cellular glycans that had incorporated azidofucose), we investigated both methods by using in situ Cu(II) reduction with ascorbic acid and Tris(carboxyethyl)phosphine (TCEP) and direct addition of Cu(I), via CuBr, in CuAAC reactions. Jurkat cells were cultured in the presence of globally acetylated 6-azido-L-fucose 12 (acetylation increases cellular uptake of the sugar) so that they will incorporate the analog via the salvage pathway. After incubating for 3 days, the cells were labeled with 1a in the presence of the above listed Cu(I) sources, and the fluorescent intensities were measured by flow cytometry. […]
Jurkat cells were cultured in RPMI medium 1640 (Invitrogen, Carlsbad, Calif.), supplemented with 10% FCS and peracetylated fucose 11 or azidofucose 12 (200 μM) at a density of 2×10^5 cells per ml for 3 days, in the presence or absence of tunicamycin (5 μg/ml). […] The fluorescence intensity was detected and acquired by BD LSR II (BD Biosciences, San Jose, Calif.) and FACSDiva software (BD Biosciences). […] For detection of the fluorescent adduct with probe 1a, a 351-nm UV laser was used for excitation, and emission was detected by a 440/40 band-pass filter.
Jurkat cells were cultured in RPMI 1640 (Invitrogen, Carlsbad, Calif.) supplemented with 10% FCS and peracetylated fucose 11 or azidofucose 12 ([…]) at the density of 2×10^5 cells/mL for 3 days, in the presence or absence of tunicamycin ([…]). […] The fluorescence intensity was detected and acquired by BD LSR II (BD Biosciences, San Jose, Calif.) and FACSDiva software (BD Biosciences). […]

Hep 3B = assay: Fluorescence microscopy imaging of intracellular fucosylated glycoconjugates; type: cell-based, human
Method: The human hepatoma cell line, Hep 3B, was incubated with acetylated azidofucose 12. After 3 days, the cells were fixed, washed with PBS, and then stained with 1a for visualization. […] The labeling reaction was performed in the presence of Cu(I) after the treatment with control fucose (A) or azidofucose 12 (B), or in the absence of Cu(I) after the treatment with control fucose (C) or azidofucose 12 (D). (Scale bar: 20 μm.)
In another aspect of the disclosure, double-staining experiments were performed to find out whether the punctate pattern observed from azidofucose marks specific cellular compartments. […] Azidofucose treated cells were fixed and labeled with probe 1a and then further treated with WGA lectin conjugated with Alexa Fluor 594, and the cells were imaged with confocal fluorescence microscope, using the appropriate filter sets. […] (Scale bar: 20 μm.)
The human hepatocellular carcinoma cell line, Hep3B (American Type Culture Collection, Manassas, Va.), was cultured in Opti-MEM (Invitrogen) supplemented with 0.1% FCS and treated with natural fucose or peracetylated azidofucose 12 (200 μM) for 3 days. The cells then were transferred to a coverslip glass slide and cultured overnight in the same medium. […] After labeling, cells were washed with PBS, and fluorescence images were obtained by using Axiovert 200M (Carl Zeiss, Inc., Thornwood, N.Y.). […]

Compound: N[C@@H](Cc1ccc(O)cc1)C(=O)O [tyrosine]
- enhancement of cycloaddition rates [1]: approximately 2 fold

Compound: C=C[C@H]1C[N@@]2CC[C@H]1C[C@H]2[C@H](O)c1ccnc2ccc(OC)cc12 [Quinine sulfate]
- quantum yield of fluorescent standard ([2]; standard value): 0.54

Compound: N[C@@H](Cc1c[nH]c2ccccc12)C(=O)O [tryptophan]
- enhancement of cycloaddition rates [1]: approximately 2 fold

Compound: C[C@@H]1O[C@H](OP(=O)(O)OP(=O)(O)OC[C@H]2O[C@@H](n3cnc4c(=O)[nH]c(N)nc43)[C@H](O)[C@@H]2O)[C@@H](O)[C@H](O)[C@@H]1O [Compound 10, GDP-fucose]
- fluorescent band of labeled AGP on SDS/PAGE under UV light (365 nm) [3]: No band was present

Compound: C#Cc1ccc2c3c(cccc13)C(=O)N(CC)C2=O [Compound 1a, 4-Ethynyl-N-ethyl-1,8-naphthalimide]
- fluorescent band of labeled AGP on SDS/PAGE under UV light (365 nm) [3]: clear fluorescent bands

Compound: N[C@@H](CCC(=O)O)C(=O)O [glutamic acid]
- effect on cycloaddition reaction [1]: obstructive to the reaction

Compound: N[C@@H](CS)C(=O)O [cysteine]
- effect on cycloaddition reaction [1]: obstructive to the reaction

Compound: CC(=O)OC1O[C@@H](CN=[N+]=[N-])[C@@H](OC(C)=O)[C@@H](OC(C)=O)[C@@H]1OC(C)=O (some centres unmarked) [Compound 12]
- cell fluorescence after CuAAC labeling with 1a vs natural fucose (Jurkat cells; Jurkat cells, 3 days, all three copper sources, flow cytometry): distinct increase in fluorescence
- fluorescent signal after labeling with biotinylated alkyne 13 and avidin-fluorescein vs fucose (Jurkat cells; Jurkat cells, flow cytometry): distinct increase in fluorescent signal
- labeling pattern after staining with 1a vs control fucose (Hep 3B; Hep 3B, 3 days, fixed cells, Cu(I)): distinct punctate-labeling pattern
- co-localization with Alexa Fluor 594-conjugated WGA lectin (Golgi marker) (Hep 3B; fixed cells labeled with probe 1a, confocal microscopy): overlapped perfectly

Compound: NCCCC[C@H](N)C(=O)O [lysine]
- effect on cycloaddition reaction [1]: obstructive to the reaction

Compound: Nc1ccc2c3c(cccc13)C(=O)NC2=O [4-amino-1,8-naphthalimide]
- emission λmax ([2]; long wavelength emission, basis of probe design): 540-550 nm

Compound: tunicamycin
- effect on cell surface fluorescence (Jurkat cells; Jurkat cells co-treated with azidofucose, labeled with 1a): suppressed cell surface fluorescence

— patent publication US8329413B2, “Glycoproteomic probes for fluorescent imaging of fucosylated glycans in vivo” (Academia Sinica, priority 2007, dated 2012)
